Experimental data taken from ChEMBL document CHEMBL1201862, “PubChem BioAssay data set” (2004).
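Cultured in 96-well plates, cells were exposed to test compound for 48 hours across five concentrations. At the GI50, growth is halved.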 Activity calls are given as the source filed them. Cut-off read from the data, not from the text of the source: active = GI50 up to about 1.1 µM and inactive = higher.

What was measured:
Assay in all cases: inhibition of tumour cell growth, NCI panel, 48 h
SW-620 = system: SW-620
HCC 2998 = system: HCC 2998
OVCAR-5 = system: OVCAR-5
IGROV-1 = system: IGROV-1
NCI-H23 = system: NCI-H23
HOP-62 = system: HOP-62
OVCAR-8 = system: OVCAR-8
HCT-15 = system: HCT-15
NCI-H522 = system: NCI-H522
SK-MEL-5 = system: SK-MEL-5
SNB-19 = system: SNB-19
U-251 = system: U-251
SNB-75 = system: SNB-75
MDA-MB-435 = system: MDA-MB-435
NCI-H460 = system: NCI-H460
CCRF-CEM = system: CCRF-CEM
A498 = system: A498
SR = system: SR
UACC-257 = system: UACC-257
SN12C = system: SN12C

Structure (SMILES) | GI50 (SW-620) | GI50 (HCC 2998) | GI50 (OVCAR-5) | GI50 (IGROV-1) | GI50 (NCI-H23) | GI50 (HOP-62) | GI50 (OVCAR-8) | GI50 (HCT-15) [µM] | GI50 (NCI-H522) | GI50 (SK-MEL-5) | GI50 (SNB-19) | GI50 (U-251) | GI50 (SNB-75) | GI50 (MDA-MB-435) | GI50 (NCI-H460) | GI50 (CCRF-CEM) | GI50 (A498) | GI50 (SR) | GI50 (UACC-257) | GI50 (SN12C)
CCN1C/C(=C\c2ccc(Cl)cc2)c2nc(N)c(C#N)c(-c3ccc(Cl)cc3)c2C1 | > 100 µM (inactive) | > 100 µM (inactive) | > 100 µM (inactive) | > 100 µM (inactive) | > 100 µM (inactive) | > 100 µM (inactive) | > 100 µM (inactive) | > 100 | > 100 µM (inactive) | > 100 µM (inactive) | > 100 µM (inactive) | > 100 µM (inactive) | 60.3 µM (inactive) | > 100 µM (inactive) | > 100 µM (inactive) | > 100 µM (inactive) | > 100 µM (inactive) | 27.1 µM (inactive) | > 100 µM (inactive) | 
COC(=O)C1C(C(=O)OC)C2(OC(c3ccc(Cl)cc3)=CC2=O)C12OC(c1ccc(Cl)cc1)=CC2=O (stereo unspecified) | 32.7 µM (inactive) | 18.3 µM (inactive) | 24.3 µM (inactive) | 17 µM (inactive) | 20.8 µM (inactive) | > 10 µM (inactive) |  | 16.4 | 18.4 µM (inactive) | 19.3 µM (inactive) | 43.2 µM (inactive) | 32.1 µM (inactive) |  | 22.5 µM (inactive) | 19.8 µM (inactive) | 3.01 µM (inactive) | 29.9 µM (inactive) | 1.96 µM (inactive) | 22.9 µM (inactive) | 20.5 µM (inactive)
Cc1cc2sc(C)[n+](CCCOS(=O)(=O)[O-])c2cc1C | > 100 µM (inactive) |  | > 100 µM (inactive) | > 100 µM (inactive) | > 100 µM (inactive) | > 100 µM (inactive) | > 100 µM (inactive) | > 100 | 40.6 µM (inactive) | > 100 µM (inactive) | > 100 µM (inactive) | > 100 µM (inactive) | > 100 µM (inactive) | > 100 µM (inactive) | > 100 µM (inactive) |  | > 100 µM (inactive) | 66.2 µM (inactive) | > 100 µM (inactive) | > 100 µM (inactive)
Cc1[nH]c2ccccc2c1-c1cc(-c2cc(-c3c(C)[nH]c4ccccc34)nc(N)n2)nc(N)n1 | > 100 µM (inactive) |  | > 100 µM (inactive) | > 100 µM (inactive) | > 100 µM (inactive) | > 100 µM (inactive) | > 100 µM (inactive) | > 100 | 51.8 µM (inactive) | > 100 µM (inactive) | > 100 µM (inactive) | > 100 µM (inactive) |  | > 100 µM (inactive) | > 100 µM (inactive) |  | > 100 µM (inactive) | 86.3 µM (inactive) | > 100 µM (inactive) | > 100 µM (inactive)
COc1cc2c(c(OC)c1OC)-c1ccc(OC)c(=O)cc1[C@@H](NC(=O)c1ccccc1)CC2 | 0.0119 µM (active) | 0.0162 µM (active) | 1.07 µM (active) | 0.0146 µM (active) | 0.0128 µM (active) | 0.0379 µM (active) |  | 0.021 | 0.0114 µM (active) | 0.0107 µM (active) |  | 0.0147 µM (active) | < 0.0327 µM (active) | < 0.01 µM (active) |  | < 0.01 µM (active) | < 0.0121 µM (active) | 0.155 µM (active) | 0.148 µM (active) | 0.0146 µM (active)
CC1=NN(c2cccc(Cl)c2)C2(SCC(=O)N2c2nc3ccccc3s2)/C1=C\c1cccs1 (stereo unspecified) | 34.3 µM (inactive) | 16.6 µM (inactive) | 20.8 µM (inactive) | 27.3 µM (inactive) | 18.5 µM (inactive) | 28.2 µM (inactive) | 20.8 µM (inactive) | 20.7 | 21.2 µM (inactive) | 18.1 µM (inactive) |  | 20.3 µM (inactive) | 17.5 µM (inactive) | 30.5 µM (inactive) | 27.2 µM (inactive) |  | 25.4 µM (inactive) | 11.7 µM (inactive) | 24.4 µM (inactive) | 
